Laboratory results taken from patent publication US9421175B2, “Prevention of retinopathy by inhibition of the visual cycle” (priority 2004, dated 2016).

Assays:
Format in all cases: in vivo, rat
rats [1] = test: Retinal vessel diameter after intravitreal isotretinoin (digital fundus photography); settings: single intravitreal injection of isotretinoin 2.5 μg in 10 μl DMSO; 6 h later, dark adapted; 4 eyes; SD 4.2%; p=0.04 vs placebo
Method: Purpose: To assess the effect of intravitreal isotretinoin on retinal vessel diameters in rats, the vein diameter acting as a marker of retinal flow and metabolism.
Methods: In 6 animals, one eye received a single intravitreal injection of isotretinoin 2.5 μg in 10 μl dimethyl sulfoxide (DMSO). The fellow eye received a placebo injection of 10 μl DMSO. Retinal vessel diameter was recorded 6 h later in both eyes after the rats had dark adapted using digital fundus photography in red illumination and assessed using computerized image analysis. All procedures were performed in general anesthesia and the study adhered to the ARVO resolution on animal welfare.

rats [2] = test: Experimental retinal vein occlusion, blood-retina barrier permeability by vitreous fluorometry; settings: i.p. isotretinoin 5 mg/mild in DMSO for five days before examination, 14 days after photocoagulation; 7 rats; p<0.012
Method: Purpose: To assess the effect of isotretinoin on the integrity of the blood-retina barrier in experimental retinal vein occlusion. Material and methods: Occlusion of all retinal veins near the rim of the optic nerve head was induced by laser photocoagulation in 14 rats. Blood-retina barrier permeability was measured using vitreous fluorometry 2 weeks later. In 7 rats, intraperitoneal isotretinoin 5 mg/mild in dimethyl sulfoxide (DMSO) was administered for five days before the examination of vascular leakage 14 days after photocoagulation. The study adhered to the ARVO resolution on animal welfare.

Sprague-Dawley rats [3] = test: Resistance to retinal ischemia 18 h after intraperitoneal isotretinoin (scotopic ERG 1 week later)
Method: Purpose: To evaluate the efficacy of isotretinoin in the prevention of retinal functional loss following 1 h ischemia induced by elevation of the intraocular pressure beginning 18 h after the intraperitoneal administration of isotretinoin.
(§1) Material and methods: Intraperitoneal isotretinoin 5 mg/kg in dimethyl sulfoxide (DMSO) was given to 6 Sprague-Dawley rats 18 h before intraocular pressure elevation during general anesthesia using cannulation of the anterior chamber in one eye and infusion of balanced saline solution at a pressure of 110 mmHg. The fellow eye was not subjected to ischemia. The animals were kept in ambient room light before and during ischemia. Retinal function was assessed 1 week later by scotopic and mesopic full-field electroretinography (ERG). The study adhered to the ARVO resolution on animal welfare.

Sprague-Dawley rats [4] = test: Resistance to retinal ischemia 1 h after intraperitoneal isotretinoin (scotopic ERG 1 week later); settings: isotretinoin 5 mg/kg i.p. in DMSO 1 h before 1 h ischemia (IOP 110 mmHg), 5 treated rats
Method: Purpose: To evaluate the efficacy of isotretinoin in the prevention of retinal functional loss following 1 h of ocular ischemia induced by elevation of the intraocular pressure beginning 1 h after the intraperitoneal administration of isotretinoin.
as §1, with “Of 12 Sprague-Dawley rats, 7 received intraperitoneal saline injection and 5 received intraperitoneal” for “Intraperitoneal”, “1” for “was given to 6 Sprague-Dawley rats 18”, “full anaesthesia” for “general anesthesia”

SMILES: CC1=C(/C=C/C(C)=C/C=C/C(C)=C\C(=O)O)C(C)(C)CCC1 [isotretinoin, 13-cis-retinoic acid]
- change in retinal vein diameter (rats [1]): −9%
- retinal vascular leakage compared to untreated animals (rats [2]): lower
- eyes subjected to ischemia with normal scotopic ERG amplitudes (Sprague-Dawley rats [3]; isotretinoin 5 mg/kg i.p. in DMSO 18 h before 1 h ischemia (IOP 110 mmHg), ERG 1 week later, 6 treated rats): 6 eyes
- scotopic ERG amplitudes (Sprague-Dawley rats [3]; isotretinoin 5 mg/kg i.p. in DMSO 18 h before 1 h ischemia, eyes subjected to ischemia, 1 week after ischemia): 60-120 μV
- animals with flat ERG, of 5 eyes subjected to ischemia (Sprague-Dawley rats [4]): 2 animals
- animals with intact scotopic ERG, of 5 eyes subjected to ischemia (Sprague-Dawley rats [4]): 3 animals
